From patent publication US8877738B2, “Antipathogenic peptides” (priority 2009, dated 2014)
Values after ≈ are worked out from the molar mass of the structure shown. Ends that are not written are not given here.

How the values were obtained:
[1] = in vitro; conditions: human, 293TT cells
Procedure: The 293TT cell line derived from human embryonal kidney cells transformed with the SV40 large T antigen was cultured in Dulbecco's modified Eagle's medium (DMEM) (Gibco/BRL, Gaithersburg, Md., USA) supplemented with heat-inactivated 10% bovine serum (Gibco/BRL), Glutamax-I (Invitrogen, Carlsbad, Calif., USA) and nonessential aminoacids. This cell line allows high levels of protein to be expressed from vectors containing the SV40 origin due to overreplication of the expression plasmid (Buck et al., 2004).
Cells were seeded at a density of 5×10^4/well in 24-well plates; the next day they were treated with serially diluted peptides to generate dose-response curves. Forty-eight or 72 h after treatment, cell viability was determined by the 3-(4,5-dimethylthiazol-2-yl)-2,5-diphenyltetrazolium bromide (MTT) method; 50% cytotoxic concentration (CC50) values were determined using Prism.

[2] = test system: HCMV laboratory strain AD169; conditions: HELFs, M.O.I. 1, treated 1 h before and during infection, 6 days p.i.
Procedure: (§1) FIGS. 4A and 4B. […] HUVECs were infected with the endotheliotropic and clinical HCMV isolate VR1814 (FIG. 4B) at a M.O.I of 1. The extent of AD169 or AU replication was then assessed by titrating the infectivity of supernatants of HELF suspensions by standard plaque assay. The extent of VR1814 replication was measured by titrating the infectivity of supernatants of cell suspensions by the indirect immunoperoxidase staining procedure on HUVECs using a monoclonal antibody (mAb) reactive to the HCMV IE proteins. Plaques were microscopically counted, and the mean plaque counts for each peptide concentration were expressed as a percentage of the mean count of the controls. The number of plaques was plotted as a function of drug concentration, and the concentration producing a 50% reduction in plaque formation (IC50) was determined.
(§2) After 1 hour, they were infected with HCMV AD169 or HCMV AL1 at a M.O.I. of 1 PFU/cell. […] The cells and supernatants from the antiviral assay were then harvested and disrupted by sonication. The extent of virus replication was assessed by titrating the infectivity of supernatants of cell suspensions by standard plaque assay on HELFs.

[3] = test system: HCMV clinical isolate AL1; conditions: HELFs, M.O.I. 1, 6 days p.i.
Procedure: as §1, §2

[4] = test system: HPV-16 PsV; conditions: HPV-16-SEAP PsV preincubated with peptide, 293TT cells, 72 h post-infection
Text: HPV-16 PsV were produced according to previously described methods (Buck et al., 2005). Briefly, 293TT cells were transfected with the plasmid p16sheLL expressing the papillomavirus major and minor capsid proteins (L1 and L2) together with a reporter plasmid expressing the secreted alkaline phosphatase (SEAP) or the green fluorescence protein (GFP) named pYSEAP or pfwB respectively. Capsids were allowed to mature overnight in cell lysate; the clarified supernatant was then loaded on top of a 27-33-39% Optiprep (Sigma-Aldrich, St. Louis, Mo., USA) density gradient at room temperature for 4 h. […] The L1 protein content of PsV stocks was determined by comparison with bovine serum albumin standards in Coomassie-stained SDS-PAGE gels.
For the Secreted Embryonic Alkaline Phosphate (SEAP)-based assays 293TT cells were preplated 3-4 h in advance in 96-well tissue culture-treated flat bottom plates at a density of 30,000 cells/well in 100 μl neutralization buffer (DMEM without phenol red, 10% heat-inactivated FBS, 1% glutamate, 1% nonessential amino acids, 1% penicillin-streptomycin-fungizone, and 10 mM HEPES). […] The SEAP content in the clarified supernatant was determined using a Great ESCAPE SEAP Chemiluminescence Kit (BD Clontech, Mountain View, Calif., USA) as directed by the manufacturer. […]

[5] = test system: HCMV VR1814; conditions: HUVECs, M.O.I. 1, 6 days p.i.
Procedure: as §1
The cells and supernatants from the antiviral assay were then harvested and disrupted by sonication.

[6] = test system: HSV-2; assay: HSV-2 attachment (adsorption) assay on Vero cells; type: cell-based; conditions: compound present during adsorption, 3 h at 4° C., 200 PFU; plaques after 48 h
Procedure: (§3) FIG. 3. The dendrimeric peptides SB105 and SB105-A10 inhibit HSV-1 and HSV-2 attachment to Vero cells. Pre-chilled Vero cells were incubated at 4° C. with different concentrations of SB105, SB105-A10, SB104 or heparin and with 200 PFU of HSV-1 or HSV-2. Following virus adsorption (3 h at 4° C.), cells were then washed with cold PBS three times to remove compound and unadsorbed viruses, overlaid with medium containing 1.2% methylcellulose and incubated at 37° C. for 48 h. Viral plaques were then stained and counted, and the mean plaque counts for each peptide concentration expressed as a percentage of the mean count of the controls. The data shown represent means±SD of three independent experiments (error bars).
(§4) Following virus adsorption (3 h at 4° C., a condition that is known to allow virus adsorption only), cells were then washed with cold PBS three times to remove compound and unadsorbed viruses, overlaid with medium containing 1.2% methylcellulose and incubated at 37° C. Forty eight hours later, plates were fixed and stained with crystal violet and the viral plaques counted.

[7] = test system: HCMV AD169; assay: HCMV attachment (adsorption) assay on HELF cells; type: cell-based; conditions: compound present during adsorption, 3 h at 4° C., 200 PFU AD169; plaques after 6 days
Procedure: FIG. 6. HCMV adsorption to target cells is inhibited by SB105 and SB105-A10 dendrimeric peptides. Pre-chilled HELF cells were incubated at 4° C. with different concentrations of SB105, SB105-A10, SB104 or heparin and with 200 PFU of HCMV AD169. Following virus adsorption (3 h at 4° C.), cells were washed with cold PBS three times to remove compound and unadsorbed viruses, overlaid with medium containing 1.2% methylcellulose and incubated at 37° C. for 6 days. Viral plaques were then stained and counted and the mean plaque counts for each peptide concentration were expressed as a percentage of the mean count of the controls. The data shown represent means±SD of three independent experiments (error bars).
After 24 h, they were prechilled to 4° C. and incubated in duplicate at 4° C. with different concentrations of SB105, SB105_A10, SB104 (as negative control for inhibition of viral replication) or heparin (as a positive control for inhibition of viral adsorption) and with 200 PFU of HCMV AD169. Following virus adsorption (3 h at 4° C., a condition that is known to allow virus adsorption only), cells were then washed with cold PBS three times to remove compound and unadsorbed viruses, overlaid with medium containing 1.2% methylcellulose and incubated at 37° C. for 6 days. Plates were then fixed and stained with crystal violet and the viral plaques counted.

[8] = test system: HSV-1; assay: HSV-1 attachment (adsorption) assay on Vero cells; type: cell-based; conditions: compound present during adsorption, 3 h at 4° C., 200 PFU; plaques after 48 h
Procedure: as §3, §4

[9] = test system: HIV-1IIIb; assay: HIV-1IIIb replication in C8166 cells (RNA load by real time RT-PCR, p24 ELISA); type: cell-based; conditions: day 7 post-infection, 0.1-20 μg/ml
Text: FIG. 8: Quantitative real time RT-PCR analysis of HIV-1 RNA load in HIV-1 infected C8166 cell culture supernatants at day 7 post infection. […] The data are reported as means±SD of three independent experiments performed in duplicate.
FIG. 9: ELISA HIV-1 p24 protein analysis in HIV-1 infected C8166 cell culture supernatants at day 7 post infection. […] The data are reported as means±SD of three independent experiments performed in duplicate.
HIV-1 RNA viral load and HIV-1 gag p24 content were determined at day 7 post-infection in the culture supernatants in three independent experiments performed in duplicate. HIV-1 RNA was extracted by Roche high pure viral nucleic acid kit (Roche, Mannheim, Germany) from 200 μl of culture supernatants and then RNA load was assessed by quantitative real time RT-PCR as previously described (Gibellini et al., 2004). In parallel, HIV-1 gag p24 protein amount was determined by ELISA HIV-1 p24 antigen kit (Biomerieux Marcy L'Etoile, France).

Molecule	CC50 [1]	50% inhibition of HCMV AD169 replication (IC50) [2]	IC50, HCMV clinical isolate AL1 replication [3]	IC50 against HPV-16 PsV [4]	IC50, endotheliotropic HCMV VR1814 replication [5]	effect on HSV-2 attachment to Vero cells [6]	effect on HCMV attachment (adsorption) to HELF cells [7]	effect on HSV-1 attachment to Vero cells [8]	HIV-1 gag p24 content in culture supernatants ([9]; ELISA)	HIV-1 RNA load in culture supernatants ([9]; real time RT-PCR)
CC[C@H](C)[C@H](NC(=O)[C@H](CCCNC(=N)N)NC(=O)[C@@H](NC(=O)[C@H](CCCNC(=N)N)NC(=O)[C@H](CC(C)C)NC(=O)[C@H](CO)NC(=O)[C@H](C)N)C(C)C)C(=O)N[C@@H](CCCCN)C(=O)N[C@@H](CCCCN)C(=O)N[C@@H](CCC(N)=O)C(=O)NCCCC[C@H](NC(=O)[C@H](CCC(N)=O)NC(=O)[C@H](CCCCN)NC(=O)[C@H](CCCCN)NC(=O)[C@@H](NC(=O)[C@H](CCCNC(=N)N)NC(=O)[C@@H](NC(=O)[C@H](CCCNC(=N)N)NC(=O)[C@H](CC(C)C)NC(=O)[C@H](CO)NC(=O)[C@H](C)N)C(C)C)[C@@H](C)CC)C(=O)NCCCC[C@H](NC(=O)[C@H](CCCCNC(=O)[C@H](CCC(N)=O)NC(=O)[C@H](CCCCN)NC(=O)[C@H](CCCCN)NC(=O)[C@@H](NC(=O)[C@H](CCCNC(=N)N)NC(=O)[C@@H](NC(=O)[C@H](CCCNC(=N)N)NC(=O)[C@H](CC(C)C)NC(=O)[C@H](CO)NC(=O)[C@H](C)N)C(C)C)[C@@H](C)CC)NC(=O)[C@H](CCC(N)=O)NC(=O)[C@H](CCCCN)NC(=O)[C@H](CCCCN)NC(=O)[C@@H](NC(=O)[C@H](CCCNC(=N)N)NC(=O)[C@@H](NC(=O)[C@H](CCCNC(=N)N)NC(=O)[C@H](CC(C)C)NC(=O)[C@H](CO)NC(=O)[C@H](C)N)C(C)C)[C@@H](C)CC)C(=O)NCCC(N)=O [SB105, (ASLRVRIKKQ)4-Lys2-Lys-β-Ala]	> 100 µg/mL	1.17 µg/mL	1.2 µg/mL (≈ 0.231 µM)	11.6 µg/mL (≈ 2.23 µM)	1.1 µg/mL (≈ 0.212 µM)	–	–	–	–	–
heparin	–	–	–	–	–	prevented virus adsorption	prevented virus adsorption	prevented virus adsorption	–	–
(NKKIRVRL)4-Lys2-Lys-β-Ala (also: tetramer on Lys2-Lys-β-Ala core) [SB104]	–	–	–	–	–	did not significantly reduce	did not significantly reduce	did not significantly reduce	did not induce significant inhibition	did not induce significant inhibition
